Source: the supplement of paper PMC10307832

What was measured:
Assay in all cases: relative viability (nuclei count vs DMSO), 5 days (fraction); higher = more cells survive
[1] = compound: CC[C@@H](C)CNCC(=O)N1CCC2=C([C@@H]1COC3=CC=CC(=C3)C)C=CS2 [RU-SKI 43] + CS(=O)(=O)CCNCc1ccc(-c2ccc3ncnc(Nc4ccc(OCc5cccc(F)c5)c(Cl)c4)c3c2)o1 [Lapatinib] (partner 2 µM)
Procedure, shortened: (§1)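 One day after seeding in 1536-well plates, lung cancer cell lines were dosed by pin tool. Dosing was either single-drug or a fixed anchor-drug dose plus five library-drug doses (not always all listed) in √10 steps. After 5 days, nuclei were stained in one fix-and-stain step and counted on 4× images, and relative viability is the nuclei count of treated wells over that of vehicle wells, given as the median of duplicate plates.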

[2] = compound: CC[C@@H](C)CNCC(=O)N1CCC2=C([C@@H]1COC3=CC=CC(=C3)C)C=CS2 [RU-SKI 43] + CS(=O)(=O)N1CCN(Cc2cc3nc(-c4cccc5[nH]ncc45)nc(N4CCOCC4)c3s2)CC1 [Pictilisib] (partner 1 µM)
Procedure, shortened: as §1

[3] = compound: Cn1cc(-c2cnc3ccc4ccc(CS(=O)(=O)NCc5ccccn5)cc4c(=O)c3c2)cn1 [MK-8033] + CS(=O)(=O)N1CCN(Cc2cc3nc(-c4cccc5[nH]ncc45)nc(N4CCOCC4)c3s2)CC1 [Pictilisib] (partner 1 µM)
Procedure, shortened: as §1

[4] = compound: Cn1cc(-c2cnc3ccc4ccc(CS(=O)(=O)NCc5ccccn5)cc4c(=O)c3c2)cn1 [MK-8033] + Nc1ncn([C@H]2C[C@H](O)[C@@H](CO)O2)c(=O)n1 [Decitabine] (partner 2 µM)
Procedure, shortened: as §1

Cell Line | relative viability ([1]; first compound 0.1 µM) | relative viability ([1]; first compound 0.3162 µM) | relative viability ([1]; first compound 1 µM) | relative viability ([1]; first compound 10 µM) | relative viability ([2]; first compound 0.1 µM) | relative viability ([2]; first compound 0.3162 µM) | relative viability ([2]; first compound 1 µM) | relative viability ([2]; first compound 10 µM) | relative viability ([3]; first compound 0.02 µM) | relative viability ([3]; first compound 0.06325 µM) | relative viability ([3]; first compound 0.2 µM) | relative viability ([3]; first compound 0.6325 µM) | relative viability ([3]; first compound 2 µM) | relative viability ([4]; first compound 0.02 µM) | relative viability ([4]; first compound 0.06325 µM) | relative viability ([4]; first compound 0.2 µM) | relative viability ([4]; first compound 0.6325 µM) | relative viability ([4]; first compound 2 µM) | relative viability ([1]; first compound 3.162 µM) | relative viability ([2]; first compound 3.162 µM)
NCI-H650 | 0.969 | 0.837 | 1.25 | 0.914 | 0.947 | 0.793 | 0.829 | 0.926 | 0.849 | 0.824 | 0.871 | 0.723 | 0.834 | 0.335 | 0.329 | 0.306 | 0.323 | 0.323 |  | 
NCI-H661 | 0.465 | 0.525 | 0.511 | 0.421 | 0.432 | 0.409 | 0.484 | 0.414 | 0.447 |  | 0.394 | 0.454 | 0.423 | 0.528 | 0.441 | 0.53 | 0.531 | 0.528 | 0.434 | 0.355
NCI-H727 | 0.797 | 0.905 | 0.84 | 0.927 | 0.31 | 0.305 | 0.438 | 0.377 | 0.52 | 0.451 | 0.354 | 0.5 | 0.273 | 0.846 | 0.783 | 0.921 | 0.927 | 0.829 | 0.839 | 0.497
NCI-H838 | 0.905 | 0.945 | 1.12 | 1.01 | 0.471 | 0.434 | 0.544 | 0.445 | 0.462 | 0.447 | 0.425 | 0.423 | 0.394 | 0.458 | 0.442 | 0.476 | 0.469 | 0.445 | 1.17 | 0.444
NCI-H1355 | 0.961 | 1.13 | 0.897 | 0.984 | 0.432 | 0.331 | 0.508 | 0.442 | 0.424 | 0.302 | 0.442 | 0.393 | 0.442 | 0.363 | 0.309 | 0.36 | 0.335 | 0.318 | 0.995 | 0.465
NCI-H1395 | 1.15 | 1.04 | 1.24 | 1.24 | 0.607 | 0.574 | 0.668 | 0.542 | 0.726 | 0.579 | 0.683 | 0.606 | 0.628 | 0.68 | 0.701 | 0.71 | 0.7 | 0.693 | 1.13 | 0.58
NCI-H1437 | 0.904 | 1.08 | 0.907 | 0.746 | 0.438 | 0.529 | 0.432 | 0.446 | 0.56 | 0.409 | 0.384 | 0.449 | 0.482 | 0.615 | 0.585 | 0.511 | 0.626 | 0.549 | 1.06 | 0.465
NCI-H1650 | 0.696 | 0.81 | 0.885 | 0.637 | 0.561 | 0.579 | 0.616 | 0.382 | 0.601 | 0.469 | 0.646 | 0.527 | 0.544 | 0.445 | 0.429 | 0.422 | 0.452 | 0.403 | 0.858 | 0.739
